# From patent US20080090859A1, “Use of Selective Opiate Receptor Modulators In the Treatment Of Neuropathy” (TIOGA PHARMACEUTICALS, INC., priority 2003, published 2008)
# Key:
# [1] = tested on: streptozotocin diabetic rats (tactile allodynia); experiment: Tactile allodynia (Von Frey filaments) in streptozotocin diabetic rats; format: in vivo, rat
# Description: A) Insulin deficient diabetes was induced in rats by a single injection of streptozotocin (50 mg/kg, intraperitoneally). After having confirmed the development of diabetes by established hyperglycemia, determined in blood samples taken from the rats, asimadoline was administered subcutaneously at doses of 1 mg/kg, 5 mg/kg and 15 mg/kg. For comparison, gabapentin, the most recent treatment for diabetic neuropathy, at 50 mg/kg was included. To determine mechanical threshold (tactile allodynia) for foot withdrawal, a series of Von Frey filaments (minimum 0.25 g; maximum 15 g) was applied in sequence to the plantar surface of the right hindpaw with a pressure that causes the filament to buckle, starting with a filament of a buckling weight of 2 g. Absence of a response after 5 seconds was regarded a negative response, and the next heavier filament was applied. Lifting of the paw was recorded as a positive response, and the next lightest filament were applied. This sequence was continued until four measurements have been made after an initial change in the behavior or until five consecutive negative (given the score of 15 g) or four positive (score of 0.25 g) scores were obtained. The resulting sequence of positive and negative scores was used to determine the 50% response threshold.
# That the beneficial effects are indeed due to the opioid mechanism of asimadoline can also be seen in Table 1.
# [2] = tested on: L5/L6 spinal nerve ligated rats (tactile allodynia); experiment: Tactile allodynia (Von Frey filaments) in rats with L5 and L6 spinal nerve ligation; format: in vivo, rat
# Excerpt: B) Neuropathic pain was induced by surgical […], i.e. the L5 and L6 spinal nerves on one side were tightly ligated in anesthetized rats. After 15 days of recovery, a series of Von Frey filaments (0.4- 15 g) was applied in sequence to the plantar surface of the ligated hind paw to determine the 50% mechanical threshold for foot withdrawal as described before.
# [3] = tested on: capsaicin-treated monkey tail (thermal allodynia); experiment: Capsaicin-induced thermal allodynia, tail withdrawal latency in monkey model; format: in vivo; conditions: 45 min after administration; for Tail Withdrawal Latency Mean ± SEM: capsaicin, cut-off 20 sec
# Description: C) Because neuropatic pain is characterized by allodynia for various sensory modalities, also thermal allodynia was investigated in a monkey model where allodynia was induced by the topical application of […] of capsaicin to the surface of the tail. Allodynia was assessed by the latency for withdrawal of the tail following immersion of the tail into water with non-noxious temperatures of either 38° C. or 42° C. (cut-off latency of 20 sec).
compound,measurement,setting,value
"CN(C(=O)C(c1ccccc1)c1ccccc1)[C@H](CN1CC[C@H](O)C1)c1ccccc1.Cl [Asimadoline, N-methyl-N-[(1S)-1-phenyl-2-((3S)-3-hydroxypyrrolidin-1-yl)ethyl]-2,2-diphenylacetamide, hydrochloride]",50% Response Threshold Mean ± SEM,"[1]; diabetic rats, 1 mg/kg s.c., 3 h after administration",2 ± 0.2 g
same,50% Response Threshold Mean ± SEM,"[1]; diabetic rats, 5 mg/kg s.c., 3 h after administration",6 ± 2.0 g
same,50% Response Threshold Mean ± SEM,"[1]; diabetic rats, 15 mg/kg s.c., 3 h after administration",9 ± 1.7 g
same,effect on tactile allodynia (in words),"[1]; diabetic rats, highest dose (15 mg/kg s.c.), 3 h after administration",nearly completely abolished tactile allodynia
same,anti-allodynic effect after intraplantar injection of kappa antagonist nor-BNI (in words),"[1]; diabetic rats, highest dose of asimadoline + nor-BNI i.pl.",completely abolished
same,50% Response Threshold Mean ± SEM,"[1]; diabetic rats, nor-BNI 100 μg i.pl. + Asimadoline 15 mg/kg s.c.",3 ± 1.0 g
same,50% Response Threshold Mean ± SEM,"[2]; 1 mg/kg p.o., 2 h after administration",6.4 ± 0.5 g
same,50% Response Threshold Mean ± SEM,"[2]; 3 mg/kg p.o., 2 h after administration",10.1 ± 0.6 g
same,50% Response Threshold Mean ± SEM,"[2]; 10 mg/kg p.o., 2 h after administration",12.0 ± 0.4 g
same,effect on tactile allodynia (in words),"[2]; highest dose (10 mg/kg p.o.), 2 h after administration",nearly completely abolished tactile allodynia
same,Tail Withdrawal Latency Mean ± SEM,"[3]; 0.01 mg/kg s.c., water 38° C.",8.0 ± 4.5 s
same,Tail Withdrawal Latency Mean ± SEM,"[3]; 0.01 mg/kg s.c., water 42° C.",4.5 ± 2.5 s
same,Tail Withdrawal Latency Mean ± SEM,"[3]; 0.032 mg/kg s.c., water 38° C.",19.6 ± 0.4 s
same,Tail Withdrawal Latency Mean ± SEM,"[3]; 0.032 mg/kg s.c., water 42° C.",12.8 ± 4.2 s
same,effect on thermal allodynia (in words),"[3]; highest dose (0.032 mg/kg s.c.), 38° C. condition",nearly completely abolished thermal allodynia
"NCC1(CC(=O)O)CCCCC1 [Gabapentin, reference compound]",50% Response Threshold Mean ± SEM,"[1]; diabetic rats, 50 mg/kg s.c.",10 ± 1.9 g
same,50% Response Threshold Mean ± SEM,[2]; 100 mg/kg p.o.,12.8 ± 1.6 g
"Oc1ccc2c3c1O[C@H]1c4[nH]c5c(c4C[C@@]4(O)[C@@H](C2)N(CC2CC2)CC[C@]314)C[C@@]1(O)[C@H]2Cc3ccc(O)c4c3[C@@]1(CCN2CC1CC1)[C@H]5O4 [nor-BNI, nor-binaltorphimine, reference compound]",50% Response Threshold Mean ± SEM,"[1]; non-diabetic control rats, nor-BNI 100 μg i.pl.",13 ± 1.6 g
